Literature values in patent US20050009897A1, “Method of treatment” (priority 2001, published 2005).
Like-named read-outs stand apart in the source and are kept apart here.

Legend:
[1] = 45 hypertensive diabetic patients, cited from earlier work
[2] = hypertensive patients; cited from earlier work
[3] = nondiabetic hypertensive individuals; cited from earlier work
[4] = compared with other β-blockers, angiotensin converting enzyme inhibitors or calcium channel blockers; cited from earlier work

Row | Compound | fasting glucose [1] | fasting insulin [1] | glucose disposal [1] | insulin sensitivity [1] | lipid peroxidation [1] | antihypertensive effect ([1]; relative to carvedilol) | glycemic control [2] | HbA1c [1] | insulin sensitivity [3] | lowering blood pressure [4]
1 | CC(C)NCC(O)COc1ccc(CC(N)=O)cc1 (stereo not shown) [atenolol] | increased | increased | decreased | decreased | no effect | equivalent | significantly reduce | – | – | –
2 | CC(C)NCC(O)COc1cccc2ccccc12 (stereo not shown) [propranolol] | – | – | – | – | – | – | significantly reduce | – | – | –
3 | COc1ccccc1OCCNCC(O)COc1cccc2[nH]c3ccccc3c12 (stereo not shown) [carvedilol] | decreased | decreased | increased | increased | decreased | – | – | decreased | increases | as effective as other β-blockers, angiotensin converting enzyme inhibitors or calcium channel blockers
